According to paper PMC6130489, “Caffeic acid methyl and ethyl esters exert potential antidiabetic effects on glucose and lipid metabolism in cultured murine insulin-sensitive cells through mechanisms implicating activation of AMPK” (Pharmaceutical Biology, 2017):

How the values were obtained:
AMPK = test: Western immunoblot phospho-AMPK in L6 myotubes; type: cell-based, rat; conditions: AICAR 30 min (2 mM per Figure 1 legend, 1 mM per methods)
Description: L6 cells myotubes, H4IIE cells and 3T3-L1 adipocytes were treated with either CAME, CAEE (50 μM each) or vehicle (DMSO) for 18 h. Insulin (100 nM) or aminoimidazole carboxamide ribonucleotide (AICAR; 1 mM) were added to some vehicle-treated wells 30 min prior to the end of the treatment and served as the positives controls. Protein content was assayed by the bicinchoninic acid method (Thermo Scientific Pierce Protein Research, Rockford, IL) standardized to bovine serum albumin. Western immunoblotting was performed as described elsewhere (Eid et al. [2010]). Membranes were incubated overnight with phospho-AMPK, phospho-Akt, GLUT4, GLUT1 and β-actin antibodies (1:1000 dilution, Cell Signalling Technology, Danvers, MA), or with PPAR-γ, SREBP-1 (1:200, Santa Cruze Biotechnology, Santa Cruz, CA), followed by incubation with HRP-coupled secondary antibody (1:10,000) for 1 h. Immunoreactive bands were visualized by enhanced chemiluminescence and quantified by the Scion Image program (Scion Corporation, Frederick, MD). Experiments were repeated on 3 different passages of cells, each passage containing all conditions in parallel.
Figure 1. (A) CAME and CAEE increase ^3H-deoxyglucose uptake in L6 GLUT4myc myotubes. Cells were treated with 50 μM of either CAME, CAEE, or with vehicle (0.1% DMSO) for 18 h. 100 nM insulin served as the positive control and was applied for the last 15 min of the treatment in vehicle-treated cells. Glucose uptake was performed as described in Materials and Methods section. […] Cells were treated as previously described, cell surface GLUT4myc was detected by an enzyme-linked colorimetric assay. […] Results represent the means ± SEM of three independent experiments, and 3-4 cells were analyzed for each condition per experiment. *Indicates a significant (p ≤ 0.05) difference, **(p < 0.01) from the vehicle control group as assessed by ANOVA. […] Data are expressed as (D) phospho-AMPK/β-actin, (E) GLUT4/β-actin and (F) GLUT1/β-actin and are given as mean ± SEM from 3 experiments. *p < 0.05 indicates a significant difference, **(p < 0.01) from the vehicle control group.

GLUT4myc = test: Cell surface GLUT4myc (GLUT4 translocation), OPD assay; type: cell-based, rat; conditions: insulin 100 nM, 15 min; L6-GLUT4myc
Description: L6-GLUT4myc myotubes grown in 24-well plates were serum-starved for 4 h and were incubated with either CAME or CAEE (50 μM) for 18 h or insulin (100 nM) for 15 min. Cell-surface GLUT4myc levels were measured by an antibody-coupled colorimetric assay (Niu et al. [2003]) using O-phenylenediamine dihydrochloride (OPD) reagent (1 mL/well) (Sigma-Aldrich, St. Louis, MO), an anti-c-myc antibody (1:200 dilution; Santa Cruz Biotechnology, Santa Cruz, CA) and horseradish peroxidase (HRP)-conjugated goat anti-rabbit IgG at 4 °C (1:1000 dilution; Cell Signaling Technologies, Danvers, MA).
Figure 1. (A) CAME and CAEE increase ^3H-deoxyglucose uptake in L6 GLUT4myc myotubes. Cells were treated with 50 μM of either CAME, CAEE, or with vehicle (0.1% DMSO) for 18 h. 100 nM insulin served as the positive control and was applied for the last 15 min of the treatment in vehicle-treated cells. Glucose uptake was performed as described in Materials and Methods section. (B) CAME and CAEE stimulate GLUT4 translocation in L6 GLUT4myc myotubes. Cells were treated as previously described, cell surface GLUT4myc was detected by an enzyme-linked colorimetric assay. By the end of the treatment, L6- GLUT4myc cells were labeled with anti-c-myc antibody as described in Materials and Methods section. Results represent the means ± SEM of three independent experiments, and 3-4 cells were analyzed for each condition per experiment. *Indicates a significant (p ≤ 0.05) difference, **(p < 0.01) from the vehicle control group as assessed by ANOVA. […] L6 myotubes treated with CAME or CAEE (50 μM each), DMSO (0.1%) for 18 h. Insulin (100 nM) and AICAR (2 mM) both applied for 30 min and served as positive controls. Immunoblots were probed with anti phospho-AMPK (Thr 172), anti-GLUT4, anti-GLUT1 and anti-phospho-Akt (Ser 473) antibodies as described in Materials and Methods section. […] Data are expressed as (D) phospho-AMPK/β-actin, (E) GLUT4/β-actin and (F) GLUT1/β-actin and are given as mean ± SEM from 3 experiments. *p < 0.05 indicates a significant difference, **(p < 0.01) from the vehicle control group.

L6 GLUT4myc myotubes = test: 3H-Deoxyglucose uptake assay; type: cell-based, rat; conditions: insulin 100 nM, 15 min
Description: Measurement of glucose uptake was performed as previously described (Eid et al. [2010]) using [^3H]-2-deoxyglucose (TRK-383, Amersham Biosciences, Buckinghamshire, UK). Nonspecific uptake was measured in the presence of cytochalasin B (10 μM) and was subtracted from all values.
Figure 1. (A) CAME and CAEE increase ^3H-deoxyglucose uptake in L6 GLUT4myc myotubes. Cells were treated with 50 μM of either CAME, CAEE, or with vehicle (0.1% DMSO) for 18 h. 100 nM insulin served as the positive control and was applied for the last 15 min of the treatment in vehicle-treated cells. Glucose uptake was performed as described in Materials and Methods section. (B) CAME and CAEE stimulate GLUT4 translocation in L6 GLUT4myc myotubes. Cells were treated as previously described, cell surface GLUT4myc was detected by an enzyme-linked colorimetric assay. By the end of the treatment, L6- GLUT4myc cells were labeled with anti-c-myc antibody as described in Materials and Methods section. Results represent the means ± SEM of three independent experiments, and 3-4 cells were analyzed for each condition per experiment. *Indicates a significant (p ≤ 0.05) difference, **(p < 0.01) from the vehicle control group as assessed by ANOVA. […] L6 myotubes treated with CAME or CAEE (50 μM each), DMSO (0.1%) for 18 h. Insulin (100 nM) and AICAR (2 mM) both applied for 30 min and served as positive controls. Immunoblots were probed with anti phospho-AMPK (Thr 172), anti-GLUT4, anti-GLUT1 and anti-phospho-Akt (Ser 473) antibodies as described in Materials and Methods section. Anti-β-actin antibody was used as a loading control. Representative blots are shown in panel C. Data are expressed as (D) phospho-AMPK/β-actin, (E) GLUT4/β-actin and (F) GLUT1/β-actin and are given as mean ± SEM from 3 experiments. *p < 0.05 indicates a significant difference, **(p < 0.01) from the vehicle control group.

G6Pase = molecular target: T1, G6Pase (Rattus norvegicus, UniProt P43428); test: Enzymatic activity of G6Pase in H4IIE cells; type: cell-based; conditions: insulin 100 nM, same treatment period, relative to DMSO
T1 sequence (P43428 1-357): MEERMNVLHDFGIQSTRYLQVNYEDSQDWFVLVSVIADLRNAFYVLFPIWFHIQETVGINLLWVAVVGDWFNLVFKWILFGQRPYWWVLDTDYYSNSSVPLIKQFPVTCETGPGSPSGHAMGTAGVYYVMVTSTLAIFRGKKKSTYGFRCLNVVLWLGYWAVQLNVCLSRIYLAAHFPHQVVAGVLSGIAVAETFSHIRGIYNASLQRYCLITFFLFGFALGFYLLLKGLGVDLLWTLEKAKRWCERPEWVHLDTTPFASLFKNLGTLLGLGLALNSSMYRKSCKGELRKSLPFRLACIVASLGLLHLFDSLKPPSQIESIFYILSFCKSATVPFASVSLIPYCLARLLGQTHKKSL
Description: At 90% confluence, H4-IIE cells were treated with 12.5, 25, 50 and 100 μM of either CAME or CAEE in serum free medium. Vehicle (0.1% DMSO)-treated and 100 nM insulin-treated cells served as the negative and positive control respectively. The activity of G6Pase was assessed by measuring the rate of glucose production in the presence of a non-limiting amount of glucose-6-phosphate (G6P) as described elsewhere (Nachar et al. [2013]). Total glucose production was measured using a commercial glucose assay kit (AutoKit Glucose; Wako Diagnostics, Richmond, VA). Protein content was measured using bicinchoninic acid (BCA) assay (Simpson [2008]) and G6Pase activity was expressed in relation to protein content.
Figure 2. CAME and CAEE inhibit G6Pase by mechanisms involving activation of AMPK. (A) H4IIE hepatocytes were treated for 16 h with several concentrations (12.5, 25, 50 and100 μM) of either CAME or CAEE and G6Pase activity was determined colorimetrically using a commercial glucose assay kit as described under Materials and Methods. Data are expressed relative to vehicle control (0.1% DMSO, 0% inhibition). Insulin (100 nM) applied for similar treatment period served as the positive control. (B and C) Cells were treated with the optimal nontoxic concentration of either CAME, CAEE (50 μM each), or DMSO (0.1%) for 18 h, insulin (100 nM), AICAR (1 mM) applied for 30 min served as the positive controls. (B) The upper blot was probed with anti-phospho-AMPK antibody (Thr 172) and the lower blot was probed with anti-pan AMPK. (C) Blots were probed with antibodies against phospho-Akt (Ser 473) or pan-Akt. Immunoblots are representative of three independent experiments with similar results. (D) Data are expressed as phospho-AMPK/pan-AMPK and are given as mean ± SEM from 3 experiments. *p < 0.05 indicates a significant difference, **(p < 0.01), ***(p < 0.001) from the vehicle control group.

Row | Compound | AMPK phosphorylation, fold increase over DMSO (AMPK) [fold] | GLUT4 translocation, fold relative to DMSO (GLUT4myc) [fold] | glucose uptake, percent of DMSO control (L6 GLUT4myc myotubes) [%] | 2-deoxyglucose uptake rate (L6 GLUT4myc myotubes; basal (DMSO) 10.1 ± 0.5) [pmol/min/mg protein] | inhibition of G6Pase activity (G6Pase) [%]
1 | NC(=O)c1ncn([C@@H]2O[C@H](CO)[C@@H](O)[C@H]2O)c1N [AICAR, aminoimidazole carboxamide ribonucleotide, reference compound] | 8.5 | – | – | – | –
2 | insulin: Insulin from bovine pancreas, positive control (100 nM) | – | 1.73 ± 0.18 | 175 ± 13 | 17.7 ± 1.2 | 70.7 ± 2.3
